Data reported in US9963703B2, “Compositions and methods for treating pancreatic cancer” (Autotelic LLC, priority 2016, dated 2018).

Columns and labels:
[1] = tested on: HUP-T3 pancreatic cancer cells; test: Cellular proliferation of HUP-T3 pancreatic cancer cells in vitro; conditions: HUP-T3; treatment on day 1 for 5 h; measured after 7 days
Source text: (§1) The aim of the study was to determine the effect of AP12009 (trabedersen) treatment in combination with 5-Fluorouracil (5-FU) on TGFβ2 secretion and on cellular proliferation of HUP-T3 pancreatic cancer cells and WiDr colon cancer cells in vitro.

[2] = tested on: WiDr colon cancer cells; test: Cellular proliferation of WiDr colon cancer cells in vitro; assay type: cell-based; conditions: treatment on day 1 for 5 h only
Source text: as §1

[3] = tested on: TGFβ2; test: TGFβ2 secretion/expression in WiDr colon cancer cells; assay type: cell-based
Source text: as §1

[4] = tested on: TGFβ2; test: TGFβ2 secretion/expression in HUP-T3 pancreatic cancer cells; assay type: cell-based
Source text: as §1

`O=c1[nH]cc(F)c(=O)[nH]1` [5-FU, 5-Fluorouracil, reference compound] was tested, and the “5-FU concentrations that dose-dependently reduced cell proliferation” value [1] was > 10 µM, the “5-FU concentrations that concentration-dependently reduced cell proliferation” value [2] was > 38 µM and the “5-FU concentrations at which TGFβ2 was suppressed” value [3] was > 75 µM. For the same molecule, the “5-FU concentrations at which TGFβ2 was suppressed” value [4] was > 75 µM.
